“Also recorded” adds a separate entry of the source.
Tests used:
[1] = system: Py230 murine mammary tumors; assay: Anti-CGRP/anti-PD-1 combination treatment effect on tumor volume and tumor regression; assay type: in vivo; conditions: treatment day 28-56, followed to day 70; 10 mice per group
Source text: The anti-PD-1 compound is a rat IgG2a anti-mouse PD-1 antibody, clone RMP1-14, obtained from Bio X Cell. The CGRP inhibitor is olcegepant. The isotype control is a rat IgG2a, clone 2A3, raised against human CD25, obtained from Bio X Cell.
Mice were transplanted with Py230 murine mammary tumors in the mammary fat pad. 28 days after tumor implantation the drug treatments were initiated. Treatments were: (1) Mock—isotype control and vehicle control, (2) CGRP inhibitor+isotype control, (3) anti-PD-1+vehicle control, and (4) Combination: CGRP inhibitor+anti-PD-1. Treatments were terminated 56 days after transplantation. The anti-PD-1 compound was a rat IgG2a anti-mouse PD-1 antibody, clone RMP1-14, obtained from Bio X Cell, the CGRP inhibitor was olcegepant, and the isotype control was a rat IgG2a, clone 2A3, raised against human CD25, obtained from Bio X Cell. Tumor volume, as determined by caliper measurement, was measured every other day until day 70 post-transplant. Average tumor mass of 10 individuals across two experiments is depicted (FIG. 4). The results (FIG. 5) also indicated the numbers of mice in the 4 treatment groups that experienced either tumor progression (i.e., continual growth of tumor), tumor stagnation (cessation of growth for at least 3 weeks), or tumor regression (tumor no longer palpable) in each cohort. […]

[2] = system: Py230 triple negative breast cancer cell line; assay: Py230 tumor transplant in B6 mice, BIBN4096 vs DMSO: tumor growth and tumor mass; assay type: in vivo; conditions: vs DMSO mock
Protocol: (§1) B6 mice were transplanted with Py230 tumor cells in the 4th mammary fat pad. Beginning on Day 28 post-transplant, mice were either injected with the CGRP inhibitor BIBN4096 in DMSO (white) or DMSO alone (black). 63 days post-transplant, tumors were isolated and tumor mass (FIG. 2A) determined. Tumors were digested and the ratio of activated CD44^hi CD43^+CD8 T cells to FoxP3^+ Tregs determined (FIG. 2B). PD-1 expression on tumor-isolated CD8+ T cells was measured by flow cytometry (FIG. 2C). Symbols represent individual mice, composite of two experiments. *p<0.05, **p<0.01.
B6 mice were transplanted with Py230 triple negative breast cancer cell line, tumors were measured 3×/week for 63 days. BIBN4096 or DMSO vehicle control (mock) were administered 1×/week starting on day 28 over a period of 4 weeks. Tumor masses were measured at day 63. FIG. 10A. Tumor growth curves of BIBN4096 treated B6 mice and mock treated controls. FIG. 10B. Tumor masses of BIBN4096 treated mice and mock treated controls. (n=10/group), Mann-Whitney Test, *p<0.05.

[3] = system: tumor infiltrating T cells and B cells; assay: Flow cytometric analysis of tumor-isolated immune cells after BIBN4096 treatment; assay type: in vivo, mice; conditions: day 63, flow cytometry; vs mock
Protocol: as §1
B6 mice were transplanted with Py230 triple negative breast cancer cell line, tumors were measured 3×/week for 63 days. BIBN4096 or DMSO vehicle control (mock) were administered 1×/week starting on day 28 over a period of 4 weeks. Tumor was passed through a 70 µm cell strainer and single cell suspension was stained for flowcytometric analysis. FIG. 11A. BIBN4096 treated mice have a higher ratio of activated CD8^+ T cells to regulatory T cells (T reg) compared to the mock treated controls. FIG. 11B. […] FIG. 11C. […] FIG. 11D. Tumor infiltrating T cell subtypes at day 63 in BIBN4096 and mock treated controls. (n=15 group) Mann-Whitney Test, *p<0.05, **p<0.01, ****p<0.0001, n.s. not significant.

NCCCC[C@H](NC(=O)[C@@H](Cc1cc(Br)c(O)c(Br)c1)NC(=O)N1CCC(N2Cc3ccccc3NC2=O)CC1)C(=O)N1CCN(c2ccncc2)CC1 [BIBN4096, Olcegepant]
tumor progression (continual growth of tumor), share of tumors [1]: most tumors continued to progress
tumor stagnation (cessation of growth for at least 3 weeks), share of tumors [1]: 30%
tumor growth ([2]; B6 mice, Py230, BIBN4096 1x/week from day 28 for 4 weeks, tumors measured for 63 days): inhibits tumor growth; also recorded: stops growth of triple negative breast cancer
tumor mass ([2]; day 63 post-transplant): decreases tumor mass
PD-1 expression on activated CD8+ T cells from tumor [3]: increased expression
ratio of activated CD8+ T cells to regulatory T cells (Treg) in tumor [3]: higher ratio
tumor infiltrating B cells [3]: increased infiltration; also recorded: enhances CD8+ T cell activation and tumor infiltrating B cells

— US20240383973A1, “METHODS FOR TREATING CALCITONIN GENE-RELATED PEPTIDE (CGRP) - EXPRESSING CANCERS” (The Board of Regents of the University of Oklahoma, priority 2022, published 2024)
